Laboratory results taken from ChEMBL document CHEMBL5579824, “Novel Hsp90-Targeting PROTACs: Enhanced synergy with cisplatin in combination therapy of cervical cancer” (Eur J Med Chem, 2024).
The source made the active and inactive calls. The calls are words filed in the database; no cut-off is given here.

How the values were obtained:
[1] = Toxicity in BALB/c nude mouse xenografted with human SiHa cells assessed as body weight weight loss at 2 mg/kg, ip; format: organism-based; conditions: in vivo
[2] = molecular target: T1, Protein cereblon/Heat shock protein HSP 90-alpha/Heat shock protein HSP 90-beta (Homo sapiens) (UniProt P07900+P08238+Q96SW2); assay: Protac activity at CRBN/Hsp90 in human SiHa cells assessed as induction of Hsp90 degradation at 0.05 uM incubated for 2 hrs in presence of bortezomib by Western blot analysis; format: cell-based
[3] = molecular target: T1, Protein cereblon/Heat shock protein HSP 90-alpha/Heat shock protein HSP 90-beta (Homo sapiens); assay: Protac activity at CRBN/Hsp90 in human SiHa cells assessed as induction of Hsp90 degradation at 0.05 uM incubated for 2 hrs in presence of SNX-5422 by Western blot analysis; format: cell-based
[4] = test system: SiHa; assay: Induction of apoptosis in human SiHa cells assessed as increase in apoptotic cells incubated after 48 hrs by annexin V-FITC/PI staining based flow cytometry; format: functional, cell-based; conditions: dose 0.05-10 µM
[5] = test system: SiHa; assay: Induction of apoptosis in human SiHa cells assessed as early apoptotic cells at 10 uM incubated after 48 hrs by annexin V-FITC/PI staining based flow cytometry (reference value: 2.05 %); format: functional
[6] = test system: SiHa; assay: Induction of apoptosis in human SiHa cells assessed as late apoptotic cells at 10 uM incubated after 48 hrs by annexin V-FITC/PI staining based flow cytometry (reference value: 6.93 %); format: functional
[7] = test system: SiHa; assay: Induction of apoptosis in human SiHa cells assessed as necrotic cells at 10 uM incubated after 48 hrs by annexin V-FITC/PI staining based flow cytometry (reference value: 0.08 %); format: functional
[8] = test system: SiHa; assay: Induction of apoptosis in human SiHa cells assessed as viable cells at 2.5 uM incubated after 48 hrs by annexin V-FITC/PI staining based flow cytometry (reference value: 90.4 %); format: functional; conditions: read-out: Activity
[9] = test system: SiHa; assay: Induction of apoptosis in human SiHa cells assessed as viable cells at 1 uM incubated after 48 hrs by annexin V-FITC/PI staining based flow cytometry (reference value: 90.4 %); format: functional; conditions: read-out: Activity
[10] = test system: SiHa; assay: Induction of apoptosis in human SiHa cells assessed as early apoptotic cells at 1 uM incubated after 48 hrs by annexin V-FITC/PI staining based flow cytometry (reference value: 2.05 %); format: functional
[11] = test system: SiHa; assay: Induction of apoptosis in human SiHa cells assessed as early apoptotic cells at 0.05 uM incubated after 48 hrs by annexin V-FITC/PI staining based flow cytometry (reference value: 2.05 %); format: functional
[12] = test system: SiHa; assay: Induction of cell cycle arrest in human SiHa cells assessed as accumulation of cells at S pahse at 10 uM incubated after 48 hrs by PI staining based flow cytometry (reference value: 8.51 %); format: functional
[13] = test system: SiHa; assay: Induction of cell cycle arrest in human SiHa cells assessed as accumulation of cells at G2/M pahse at 10 uM incubated after 48 hrs by PI staining based flow cytometry (reference value: 7.37 %); format: functional
[14] = test system: SiHa; assay: Induction of cell cycle arrest in human SiHa cells assessed as accumulation of cells at S pahse at 1 uM incubated after 48 hrs by PI staining based flow cytometry (reference value: 8.51 %); format: functional
[15] = test system: SiHa; assay: Induction of cell cycle arrest in human SiHa cells assessed as accumulation of cells at G2/M pahse at 0.05 uM incubated after 48 hrs by PI staining based flow cytometry (reference value: 7.37 %); format: functional
[16] = test system: HeLa; assay: Antiproliferative activity against human HeLa cells assessed as reduction in cell viability incubated for 72 hrs by CCK-8 assay; format: functional, cell-based
[17] = test system: C-33-A; assay: Antiproliferative activity against human C-33-A cells assessed as reduction in cell viability incubated for 72 hrs by CCK-8 assay; format: functional, cell-based
[18] = test system: SiHa; assay: Synergistic antiproliferative activity against human SiHa cells assessed as combination index at 0.05 uM incubated for 72 hrs in presence of 3.16 uM cisplatin by CCK-8 assay; format: functional
[19] = test system: SiHa; assay: Synergistic antiproliferative activity against human SiHa cells assessed as combination index at 0.05 uM incubated for 72 hrs in presence of 1 uM cisplatin by CCK-8 assay; format: functional
[20] = test system: SiHa; assay: Synergistic antiproliferative activity against human SiHa cells assessed as combination index at 0.05 uM incubated for 72 hrs in presence of 0.32 uM cisplatin by CCK-8 assay; format: functional
[21] = test system: SiHa; assay: Synergistic antiproliferative activity against human SiHa cells assessed as combination index at 0.05 uM incubated for 72 hrs in presence of 0.1 uM cisplatin by CCK-8 assay; format: functional
[22] = test system: SiHa; assay: Synergistic antiproliferative activity against human SiHa cells assessed as combination index at 0.05 uM incubated for 72 hrs in presence of 0.03 uM cisplatin by CCK-8 assay; format: functional
[23] = test system: SiHa; assay: Synergistic antiproliferative activity against human SiHa cells assessed as combination index at 0.1 uM incubated for 72 hrs in presence of 1 uM cisplatin by CCK-8 assay; format: functional
[24] = test system: SiHa; assay: Synergistic antiproliferative activity against human SiHa cells assessed as combination index at 0.1 uM incubated for 72 hrs in presence of 0.1 uM cisplatin by CCK-8 assay; format: functional
[25] = test system: SiHa; assay: Synergistic antiproliferative activity against human SiHa cells assessed as combination index at 0.5 uM incubated for 72 hrs in presence of 10 uM cisplatin by CCK-8 assay; format: functional
[26] = test system: SiHa; assay: Synergistic antiproliferative activity against human SiHa cells assessed as combination index at 0.5 uM incubated for 72 hrs in presence of 1 uM cisplatin by CCK-8 assay; format: functional
[27] = test system: SiHa; assay: Synergistic antiproliferative activity against human SiHa cells assessed as combination index at 0.5 uM incubated for 72 hrs in presence of 0.32 uM cisplatin by CCK-8 assay; format: functional
[28] = test system: SiHa; assay: Synergistic antiproliferative activity against human SiHa cells assessed as combination index at 0.5 uM incubated for 72 hrs in presence of 0.03 uM cisplatin by CCK-8 assay; format: functional
[29] = test system: SiHa; assay: Synergistic antiproliferative activity against human SiHa cells assessed as combination index at 0.5 uM incubated for 72 hrs in presence of 0.01 uM cisplatin by CCK-8 assay; format: functional
[30] = test system: SiHa; assay: Synergistic antiproliferative activity against human SiHa cells assessed as combination index at 0.75 uM incubated for 72 hrs in presence of 31.62 uM cisplatin by CCK-8 assay; format: functional
[31] = test system: SiHa; assay: Synergistic antiproliferative activity against human SiHa cells assessed as combination index at 0.75 uM incubated for 72 hrs in presence of 10 uM cisplatin by CCK-8 assay; format: functional
[32] = test system: SiHa; assay: Synergistic antiproliferative activity against human SiHa cells assessed as combination index at 0.75 uM incubated for 72 hrs in presence of 1 uM cisplatin by CCK-8 assay; format: functional
[33] = test system: SiHa; assay: Synergistic antiproliferative activity against human SiHa cells assessed as combination index at 1 uM incubated for 72 hrs in presence of 1 uM cisplatin by CCK-8 assay; format: functional
[34] = test system: SiHa; assay: Synergistic antiproliferative activity against human SiHa cells assessed as combination index at 1 uM incubated for 72 hrs in presence of 0.01 uM cisplatin by CCK-8 assay; format: functional
[35] = test system: SiHa; assay: Synergistic antiproliferative activity against human SiHa cells assessed as combination index at 10 uM incubated for 72 hrs in presence of 1 uM cisplatin by CCK-8 assay; format: functional

For CC1(C)CC(=O)c2c(C(F)(F)F)nn(-c3ccc(C(N)=O)c(N[C@H]4CC[C@H](OC(=O)CNC(=O)CCCCCCCNc5cccc6c5CN(C5CCC(=O)NC5=O)C6=O)CC4)c3)c2C1 (stereo not given in full), the Activity [1] was “Non-Toxic”, the Activity [2] was “inactive” and the Activity [3] was “inactive”. The Activity [4] was “Dose-Dependent Effect”, the Activity [5] was 20.83% and the Activity [6] was 29.96%. It also gave an Activity [7] of 0.27%, a viability at 2.5 µM [8] of 55.3% and a viability at 1 µM [9] of 59%. The Activity [10] was 16.5%, the Activity [11] was 2.44% and the Activity [12] was 13.6%. It also gave an Activity [13] of 24.06%, an Activity [14] of 13.56% and an Activity [15] of 9.88%. The IC50 [16] was 80 nM, the IC50 [17] was 70 nM and the CI [18] was 1.01. It also gave a CI [19] of 0.74, a CI [20] of 0.38 and a CI [21] of 0.36. For the same compound, the CI [22] was 0.3, the CI [23] was 0.8 and the CI [24] was 0.49. It also gave a CI [25] of 0.17, a CI [26] of 0.13 and a CI [27] of 0.12. The CI [28] was 0.14, the CI [29] was 0.18 and the CI [30] was 0.32. The CI [31] was 0.21, the CI [32] was 0.17 and the CI [33] was 0.18. The CI [34] was 0.23 and the CI [35] was 1.78.
